In experiment [1] the test system is primary human mesenchymal stem cells (hMSCs). As to the kind of experiment: Induction of chondrogenesis in primary human mesenchymal stem cells (hMSCs), nodule imaging with Rhodamine B / Nile Red. Conditions: for Emax: hMSCs chondrogenesis, TGF-β3 (10 ng/mL) as positive control, read-out: Max. Activity as % TGF-β3 activity; for EC50: hMSCs, concentration required to induce 50% levels of chondrogenesis vs TGF-β3 positive control, read-out: Conc (nM) of 50% TGF-β3 activity. The format is cell-based. As to the method: Representative compounds were screened using primary human mesenchymal stem cells (hMSCs) to determine their ability to induce chondrogenesis (process by which cartilage is developed).
Human Mesenchymal Stem Cell Culture: Primary human mesenchymal stem cells (hMSCs) were purchased from Lonza (Walkersville, Md.) and expanded in Mesenchymal Stem Cell Growth Media (Lonza). Cells between passage 3 and 6 were used for the experiments.
Compound Screening: Each compound was dissolved in DMSO as a 10 mM stock and used to prepare compound source plates. For the 96 well assay, serial dilution (1:3, 6-point dose-response curves from 2700 nM to 10 nM) and compound transfer was performed using the ECHO 550 (Labcyte, Sunnyvale, Calif.) into 96-well clear bottom assay plates (Greiner Bio-One) with appropriate DMSO backfill for a final DMSO concentration of 0.03%. hMSCs were plated at 20,000 cells/well in 250 μL/well Incomplete Chondrogenic Induction Medium (Lonza; DMEM, dexamethasone, ascorbate, insulin-transferrin-selenium [ITS supplement], gentamycin-amphotericin [GA-1000], sodium pyruvate, proline and L-glutamine). TGF-β3 (10 ng/mL) was used as a positive control for differentiation while negative control wells were treated with 75 nL DMSO for normalization and calculating EC50 values. For the 384 well assay, serial dilution (1:3, 8-point dose-response curves from 5000 nM to 2.2 nM) and compound transfer was performed using the ECHO 550 (Labcyte, Sunnyvale, Calif.) into 384-well clear bottom assay plates (Greiner Bio-One) with appropriate DMSO backfill for a final DMSO concentration of 0.03%. hMSCs were plated at 8,000 cells/well in 80 μL/well Incomplete Chondrogenic Induction Medium (Lonza; DMEM, dexamethasone, ascorbate, insulin-transferrin-selenium [ITS supplement], gentamycin-amphotericin [GA-1000], sodium pyruvate, proline and L-glutamine). TGF-β3 (10 ng/mL) was used as a positive control for differentiation while negative control wells were treated with 25 nL DMSO for normalization and calculating EC50 values. Cells were incubated at 37° C. and 5% CO2 for 6 days. To image chondrogenic nodules, the cells were fixed using 4% formaldehyde (Electron Microscopy Sciences), and stained with 2 μg/mL Rhodamine B (Sigma-Aldrich) and 20 μM Nile Red (Sigma-Aldrich) [Johnson K., et.al, A Stem Cell-Based Approach to Cartilage Repair, Science, (2012), 336(6082). 717-721]. The nodules imaged (25 images per well for 96 well plates and 9 images per well for 384 well plates at 10× magnification) by excitation at 531 nm and emission at 625 nm and quantified using the CellInsight CX5 (Thermo Scientific). Area of nodules in each well was normalized to the average of 3 DMSO treated wells on the same plate using Excel (Microsoft Inc.). The normalized averages (fold change over DMSO) of 2 or 3 replicate wells for each compound concentration were calculated. Due to solubility limitations of some of the compounds, curve fitting was incomplete leading to inaccurate EC50 determinations.
Using TGF-β3 as a positive control, the concentration of representative compounds required to induce 50% levels of chondrogenesis is reported. In addition, the maximum activity of each compound and the respective dose that each compound reached maximum chondrogenesis activity is reported.

Experiment [2] relates to LL29 cells (primary human fibroblasts derived from IPF patients) treated with TGF-β1, α-smooth muscle actin. The experiment can be described thus: Inhibition of the fibrotic process: αSMA staining in TGF-β1 treated primary human fibroblasts from IPF patients (LL29 cells). The format is cell-based. As to conditions: Fibroblast, 96 h; for EC50: LL29 cells treated with TGF-β1 (20 ng/mL), 4 days; for inhibition at 10 µM: LL29 cells treated with TGF-β1, 4 days, read-out: percent inhibition in brackets (given for EC50 >10 μM).

Turning to `Fc1cccc(-c2cncc3[nH]c(-c4n[nH]c5ccc(-c6cncc(OC7CCNCC7)c6)nc45)nc23)c1` [Compound 484, 3-(7-(3-Fluorophenyl)-3H-imidazo[4,5-c]pyridin-2-yl)-5-(5-(piperidin-4-yloxy)pyridin-3-yl)-1H-pyrazolo[4,3-b]pyridine], in experiment [1], the Emax amounted to 82% and the EC50 was 7 nM. In experiment [2], the EC50 was 1420 nM.
For `CN(C)Cc1cncc(-c2ccc3[nH]nc(-c4nc5c(-c6cccs6)cncc5[nH]4)c3n2)c1` [Compound 321, N,N-dimethyl-1-(5-(3-(7-(thiophen-2-yl)-3H-imidazo[4,5-c]pyridin-2-yl)-1H-pyrazolo[4,3-b]pyridin-5-yl)pyridin-3-yl)methanamine] the same measures were 79%, 10 nM and 7460 nM.
Consider `CCNCc1cncc(-c2ccc3[nH]nc(-c4nc5c(-c6cc(F)cc(NCCN(C)C)c6)cncc5[nH]4)c3n2)c1` [Compound 426, N^1-(3-(2-(5-(5-((Ethylamino)methyl)pyridin-3-yl)-1H-pyrazolo[4,3-b]pyridin-3-yl)-3H-imidazo[4,5-c]pyridin-7-yl)-5-fluorophenyl)-N^2,N^2-dimethylethane-1,2-diamine], for which, in experiment [1], the Emax was 66% and the EC50 stood at 1670 nM. In experiment [2], the EC50 stood at 5090 nM.
What is called inhibition is the drop in the measured response relative to a control, in per cent. Regarding `Cc1cnc(-c2ccc3[nH]nc(-c4nc5c(-c6cccc(F)c6)cncc5[nH]4)c3n2)s1` [Compound 1082, 2-(3-(7-(3-Fluorophenyl)-3H-imidazo[4,5-c]pyridin-2-yl)-1H-pyrazolo[4,3-b]pyridin-5-yl)-5-methylthiazole], in experiment [1], the Emax is 45%. For the same compound, in experiment [2], the EC50 was greater than 10000 nM and the inhibition at 10 µM came to 0%.
`CCNCc1cncc(-c2ccc3[nH]nc(-c4nc5c(-c6ccccn6)cncc5[nH]4)c3n2)c1` [Compound 146, N-((5-(3-(7-(Pyridin-2-yl)-3H-imidazo[4,5-c]pyridin-2-yl)-1H-pyrazolo[4,3-b]pyridin-5-yl)pyridin-3-yl)methyl)ethanamine]: in experiment [1], the Emax was determined as 50%. The compound further returned an EC50 in experiment [2] of 1860 nM.
On to `CCC(=O)Nc1cncc(-c2ccc3[nH]nc(-c4nc5c(N6CCCCC6)cncc5[nH]4)c3n2)c1` [Compound 169, N-(5-(3-(7-(Piperidin-1-yl)-3H-imidazo[4,5-c]pyridin-2-yl)-1H-pyrazolo[4,3-b]pyridin-5-yl)pyridin-3-yl)propionamide], for which, in experiment [1], the Emax stood at 70% and the EC50 was found to be 900 nM. Further, in experiment [2], the EC50 was greater than 10000 nM and the inhibition at 10 µM came out at 3%.
In the case of `CC(C)C(=O)Nc1cncc(-c2ccc3[nH]nc(-c4nc5c(-c6cccnc6)cncc5[nH]4)c3n2)c1` [Compound 93, N-(5-(3-(7-(Pyridin-3-yl)-3H-imidazo[4,5-c]pyridin-2-yl)-1H-pyrazolo[4,3-b]pyridin-5-yl)pyridin-3-yl)isobutyramide], in experiment [1], the Emax is 336% and the EC50 stood at 1670 nM. For the same compound, in experiment [2], the EC50 is greater than 10000 nM and the inhibition at 10 µM came to 12.2%.
Consider `c1cncc(-c2ccc3[nH]nc(-c4nc5c(-c6cccnc6)cncc5[nH]4)c3n2)c1` [Compound 88, 5-(Pyridin-3-yl)-3-(7-(pyridin-3-yl)-3H-imidazo[4,5-c]pyridin-2-yl)-1H-pyrazolo[4,3-b]pyridine], for which, in experiment [1], the Emax is 84% and the EC50 stood at 30 nM. The same compound gave an EC50 in experiment [2] of 4960 nM.
In the case of `Fc1cccc(-c2cncc3[nH]c(-c4n[nH]c5ccc(-c6cn[nH]c6)nc45)nc23)c1` [Compound 479, 3-(7-(3-Fluorophenyl)-3H-imidazo[4,5-c]pyridin-2-yl)-5-(1H-pyrazol-4-yl)-1H-pyrazolo[4,3-b]pyridine], in experiment [1], the Emax came to 52% and the EC50 worked out at 21 nM. Also, in experiment [2], the EC50 was greater than 10000 nM and the inhibition at 10 µM is 36.2%.
Regarding `Cc1cn(-c2cncc3[nH]c(-c4n[nH]c5ccc(-c6cncc(CN7CCCC7)c6)nc45)nc23)cn1` [Compound 210, 3-(7-(4-Methyl-1H-imidazol-1-yl)-3H-imidazo[4,5-c]pyridin-2-yl)-5-(5-(pyrrolidin-1-ylmethyl)pyridin-3-yl)-1H-pyrazolo[4,3-b]pyridine], in experiment [1], the Emax was found to be 65% and the EC50 turned out to be 2700 nM. Besides, in experiment [2], the EC50 was greater than 10000 nM and the inhibition at 10 µM is 0%.
As to `Cc1cn(-c2cncc3[nH]c(-c4n[nH]c5ccc(-c6cncc(NC(=O)CC(C)C)c6)nc45)nc23)cn1` [Compound 198, 3-Methyl-N-(5-(3-(7-(4-methyl-1H-imidazol-1-yl)-3H-imidazo[4,5-c]pyridin-2-yl)-1H-pyrazolo[4,3-b]pyridin-5-yl)pyridin-3-yl)butanamide], in experiment [1], the Emax worked out at 59% and the EC50 stood at 100 nM. Also, in experiment [2], the EC50 is greater than 10000 nM and the inhibition at 10 µM was 0%.
In the same order, the values of `CCC(=O)Nc1cncc(-c2ccc3[nH]nc(-c4nc5c(-c6cccs6)cncc5[nH]4)c3n2)c1` [Compound 309, N-(5-(3-(7-(Thiophen-2-yl)-3H-imidazo[4,5-c]pyridin-2-yl)-1H-pyrazolo[4,3-b]pyridin-5-yl)pyridin-3-yl)propionamide] are 80%, 30 nM, greater than 10000 nM and 0%.
In the same order, the values of `Cc1ncc(-c2ccc3[nH]nc(-c4nc5c(-c6cccc(F)c6)cncc5[nH]4)c3n2)n1C` [Compound 481, 5-(1,2-Dimethyl-1H-imidazol-5-yl)-3-(7-(3-fluorophenyl)-3H-imidazo[4,5-c]pyridin-2-yl)-1H-pyrazolo[4,3-b]pyridine] are 132%, 30 nM, greater than 10000 nM and 4.5%.
In the case of `Cc1cn(-c2cncc3[nH]c(-c4n[nH]c5ccc(-c6cncc(NC(=O)C(C)(C)C)c6)nc45)nc23)cn1` [Compound 204, N-(5-(3-(7-(4-methyl-1H-imidazol-1-yl)-3H-imidazo[4,5-c]pyridin-2-yl)-1H-pyrazolo[4,3-b]pyridin-5-yl)pyridin-3-yl)pivalamide], in experiment [1], the Emax is 150% and the EC50 is 100 nM. For the same compound, in experiment [2], the EC50 is greater than 10000 nM and the inhibition at 10 µM turned out to be 0%.
For `CCCCC(=O)Nc1cncc(-c2ccc3[nH]nc(-c4nc5c(-c6ccoc6)cncc5[nH]4)c3n2)c1` [Compound 299, N-(5-(3-(7-(Furan-3-yl)-3H-imidazo[4,5-c]pyridin-2-yl)-1H-pyrazolo[4,3-b]pyridin-5-yl)pyridin-3-yl)pentanamide] the same measures were 74%, 10 nM, greater than 10000 nM and 38.1%.
`CCCCC(=O)Nc1cncc(-c2ccc3[nH]nc(-c4nc5c(-c6cc(F)cc(NCCN(C)C)c6)cncc5[nH]4)c3n2)c1` [Compound 439, N-(5-(3-(7-(3-((2-(Dimethylamino)ethyl)amino)-5-fluorophenyl)-3H-imidazo[4,5-c]pyridin-2-yl)-1H-pyrazolo[4,3-b]pyridin-5-yl)pyridin-3-yl)pentanamide]: the Emax in experiment [1] came out at 65%. Moreover, the EC50 in experiment [1] came out at 10 nM; in experiment [2], 248 nM.
For the compound `CCCCC(=O)Nc1cncc(-c2ccc3[nH]nc(-c4nc5c(-c6ccccn6)cncc5[nH]4)c3n2)c1` [Compound 159, N-(5-(3-(7-(Pyridin-2-yl)-3H-imidazo[4,5-c]pyridin-2-yl)-1H-pyrazolo[4,3-b]pyridin-5-yl)pyridin-3-yl)pentanamide], in experiment [1], the Emax came out at 86% and the EC50 amounted to 30 nM. For the same compound, in experiment [2], the EC50 is greater than 10000 nM and the inhibition at 10 µM is 0.4%.

The record behind these values is patent publication US10188634B2, “3-(3H-imidazo[4,5-C]pyridin-2-yl)-1 H-pyrazolo[4,3-B]pyridines and therapeutic uses thereof” (Samumed, LLC, priority 2015, dated 2019).
